Experiments:
[1] = test system: Jurkat; experiment: cytotoxicity relative to DMSO, 18 h (ratio); higher = less cell death (drugs called cytotoxic fall below 1)
Summary of the method: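 Fluorescence was imaged at ×10, five images per well, every hour for 3 h, in 96-well plates holding 100 µl of treated cell suspension and IncuCyte Cytotox Dye at 250 nM final. Before plating, Jurkat cells or primary CD4+/CD8+ T cells (naive, or activated 48 h with CD3/CD28 Dynabeads) had been treated for 18 h with compound across 1 nM–10 µM in log10 steps at 37 °C, 5% CO2. Cytotoxicity values were based on these IncuCyte signals after confluency correction and normalisation to the mean of control wells.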

[2] = test system: Jurkat; experiment: confluency relative to DMSO, 18 h (ratio); higher = more viable
Summary of the method: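 Cells (Jurkat, or primary CD4+/CD8+ T cells either naive or stimulated 48 h with CD3/CD28 Dynabeads) were incubated with compound for 18 h at 37 °C, 5% CO2, across 1 nM–10 µM in log10 steps. Each 100 µl suspension was then placed in a 96-well plate with IncuCyte Cytotox Dye and alamarBlue and imaged by phase contrast at ×10, five images per well, hourly over 3 h. Confluency values come from the Basic Analyzer and are relative to the mean of the control wells.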

[3] = test system: Jurkat; experiment: metabolic activity relative to DMSO, 18 h (ratio); higher = more viable
Summary of the method: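 Compound was added at 1 nM–10 µM (log10 steps) for 18 h at 37 °C, 5% CO2 to Jurkat cells or to primary CD4+/CD8+ T cells that were naive or had been activated 48 h with CD3/CD28 Dynabeads. After alamarBlue was added to 10% v/v final, fluorescence (excitation 544 nm, emission 584 nm) was measured 3.5 h later. Values for metabolic activity are normalised to the mean of vehicle controls.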

Row | Structure (SMILES) | cytotoxicity ([1]; 1 nM) | cytotoxicity ([1]; 10 nM) | cytotoxicity ([1]; 100 nM) | cytotoxicity ([1]; 1000 nM) | cytotoxicity ([1]; 10000 nM) | confluency ([2]; 1 nM) | confluency ([2]; 10 nM) | confluency ([2]; 100 nM) | confluency ([2]; 1000 nM) | confluency ([2]; 10000 nM) | metabolic activity ([3]; 1 nM) | metabolic activity ([3]; 10 nM) | metabolic activity ([3]; 100 nM) | metabolic activity ([3]; 1000 nM) | metabolic activity ([3]; 10000 nM)
1 | CC(C)C(C(=O)Nc1ccc(C(=O)NO)cc1)c1ccccc1 (stereo not given) [AR-42] | 0.947 | 1.02 | 0.892 | 0.807 | 0.811 | 0.972 | 0.984 | 0.941 | 0.97 | 0.97 | 0.942 | 1.02 | 0.934 | 0.577 | 0.695
2 | Cc1ncc(-c2ccnc(Nc3ccc(S(C)(=O)=O)cc3)n2)n1C(C)C [AZD-5438] | 0.927 | 0.91 | 0.951 | 1.03 | 1.02 | 1.06 | 1.12 | 0.972 | 0.991 | 0.944 | 1.08 | 1.14 | 1.14 | 1.08 | 0.124
3 | Cc1cc(C(C)Nc2ccccc2C(=O)O)c2nc(N3CCOCC3)cc(=O)n2c1 (stereo not given) [AZD-6482] | 1.19 | 1.22 | 1.14 | 1.06 | 0.946 | 1.03 | 1.03 | 0.994 | 0.984 | 0.928 | 1.16 | 1.14 | 1.03 | 1.03 | 0.923
4 | COc1ccc(-c2ccc3c(N4CCOCC4C)nc(N4CCOCC4C)nc3n2)cc1CO (stereo not given) [AZD-8055] | 0.884 | 0.815 | 0.84 | 0.834 | 0.823 | 0.982 | 1 | 0.96 | 0.99 | 0.99 | 0.971 | 0.823 | 0.622 | 0.572 | 0.537
5 | CC(Nc1cc(F)cc(F)c1)c1cc(C(=O)N(C)C)cc2c(=O)cc(N3CCOCC3)oc12 (stereo not given) [AZD-8186] | 0.895 | 0.858 | 0.928 | 0.803 | 0.831 | 0.882 | 0.901 | 0.946 | 0.826 | 0.846 | 0.891 | 1.03 | 1.01 | 1.03 | 1.08
6 | CCN1CCN(Cc2ccc(Nc3ncc(F)c(-c4cc(F)c5nc(C)n(C(C)C)c5c4)n3)nc2)CC1 [Abemaciclib] | 1.04 | 1.13 | 1.06 | 1.09 | 0.718 | 0.952 | 1.02 | 0.98 | 0.991 | 0.818 | 1.22 | 1.24 | 1.2 | 1.15 | 0.888
7 | Cc1c2oc3c(C)ccc(C(=O)NC4C(=O)NC(C(C)C)C(=O)N5CCCC5C(=O)N(C)CC(=O)N(C)C(C(C)C)C(=O)OC4C)c3nc-2c(C(=O)NC2C(=O)NC(C(C)C)C(=O)N3CCCC3C(=O)N(C)CC(=O)N(C)C(C(C)C)C(=O)OC2C)c(N)c1=O (stereo not given) [Actinomycin D] | 1.08 | 1.02 | 0.661 | 0.517 | 0.477 | 1.11 | 1.09 | 0.972 | 0.907 | 0.923 | 0.959 | 0.746 | 0.2 | 0.152 | 0.192
8 | Cc1nc(NC(=O)N2CCCC2C(N)=O)sc1-c1ccnc(C(C)(C)C(F)(F)F)c1 (stereo not given) [Alpelisib] | 0.929 | 0.926 | 0.959 | 0.997 | 0.881 | 0.994 | 0.977 | 0.984 | 1.02 | 0.933 | 1.04 | 0.899 | 0.903 | 0.94 | 0.873
9 | CN1CCC(c2c(O)cc(O)c3c(=O)cc(-c4ccccc4Cl)oc23)C(O)C1 (stereo not given) [Alvocidib] | 1.03 | 0.92 | 0.89 | 0.505 | 0.526 | 0.999 | 0.999 | 0.974 | 0.927 | 0.939 | 1.04 | 0.946 | 0.712 | 0.086 | 0.108
10 | COc1cc(OC)c2c(=O)[nH]c(-c3cc(C)c(OCCO)c(C)c3)nc2c1 [Apabetalone] | 1.06 | 1.08 | 1.01 | 1.04 | 1.01 | 1.08 | 1.11 | 1.04 | 1.08 | 1.1 | 0.842 | 0.904 | 0.962 | 0.952 | 0.932
11 | Cc1c(CN2CCN(C(=O)C(C)O)CC2)sc2c(N3CCOCC3)nc(-c3cnc(N)nc3)nc12 (stereo not given) [Apitolisib] | 0.79 | 0.992 | 0.752 | 0.937 | 0.628 | 0.851 | 1.06 | 0.825 | 0.998 | 0.727 | 0.857 | 0.984 | 0.899 | 0.955 | 0.781
12 | COc1ccc(-c2ccc3ncc4c(c3c2)n(-c2ccc(N3CCNCC3)c(C(F)(F)F)c2)c(=O)n4C)cn1 [BGT-226] | 1.02 | 0.915 | 0.808 | 0.672 | 0.448 | 1.03 | 0.954 | 0.935 | 0.793 | 0.831 | 0.968 | 0.842 | 0.693 | 0.604 | 0.048

Reference: the supplement of paper PMC11919725
